Drawing on ChEMBL document CHEMBL2331501, “3H-1,2,4-Dithiazol-3-one compounds as novel potential affordable antitubercular agents” (Bioorg Med Chem Lett, 2013), this text covers cytotoxicity, MIC90 and MIC99 for 29 molecules.

In brackets after ≈: the same amount, converted by molar mass.

Series [1] in a line: Cytotoxicity against human L02 cells assessed as inhibitory ratio at 100 uM after 48 hrs by MTT assay. It is filed as cell-based. As to conditions: read-out: INH. Background: Formazan colour is commonly taken as a measure of viable cells.
The subject of series [2] is Mycobacterium tuberculosis. The series is described as follows: Antitubercular activity against Mycobacterium tuberculosis H37Rv ATCC 27294 after 11 days by serial dilution method. The class given is functional. As to conditions: H37Rv ATCC 27294, 264 h.

Consider `O=c1nc(-c2ccc(F)cc2)ss1`, for which, in series [1], the cytotoxicity at 48 h, 100 µM is 33.7%. In series [2], the MIC90 (usually the lowest concentration that inhibits either 90% of growth or 90% of the strains tested, depending on the study) stood at 32 µg/mL (≈ 150 µM) and the MIC99 (as a rule, the lowest concentration that inhibits either 99% of growth or 99% of the strains tested, depending on the study) came to 16 µg/mL (≈ 75 µM).

Regarding `O=c1oc(-c2cccnc2Cl)ns1`, in series [1], the cytotoxicity at 48 h, 100 µM came to 31.4%. In series [2], this molecule came in with an MIC90 of 8 µg/mL (≈ 37.3 µM) and an MIC99 of 8 µg/mL (≈ 37.3 µM).

On to `O=c1nc(-c2ccccc2[N+](=O)[O-])ss1`, for which the cytotoxicity at 48 h, 100 µM in series [1] came to 33%. In series [2], this molecule gave an MIC90 of 16 µg/mL (≈ 66.6 µM) and an MIC99 of 32 µg/mL (≈ 133 µM).

As to `O=c1nc(-c2cnccn2)ss1`, the cytotoxicity at 48 h, 100 µM in series [1] came to 56.7%. Also, in series [2], the MIC90 is 32 µg/mL (≈ 162 µM) and the MIC99 stood at 16 µg/mL (≈ 81.1 µM).

`O=c1oc(-c2ccc([N+](=O)[O-])cc2Cl)ns1`: the cytotoxicity at 48 h, 100 µM in series [1] came to 54.6%. In series [2], this molecule had an MIC90 of 16 µg/mL (≈ 61.9 µM) and an MIC99 of 16 µg/mL (≈ 61.9 µM).

For the molecule `COc1ccc(OC)c(-c2nc(=O)ss2)c1`, in series [1], the cytotoxicity at 48 h, 100 µM turned out to be 23.7%. Also, in series [2], the MIC90 amounted to 32 µg/mL (≈ 125 µM) and the MIC99 was 32 µg/mL (≈ 125 µM).

As to `Cc1ccc(-c2nc(=O)ss2)s1`, in series [1], the cytotoxicity at 48 h, 100 µM was found to be 36.3%. In series [2], the MIC90 amounted to 16 µg/mL (≈ 74.3 µM) and the MIC99 was determined as 32 µg/mL (≈ 149 µM).

Take `O=c1nc(-c2ccc(Cl)cc2)ss1`: the cytotoxicity at 48 h, 100 µM in series [1] was 46%. Besides, in series [2], the MIC90 came to 64 µg/mL (≈ 279 µM) and the MIC99 was 32 µg/mL (≈ 139 µM).

Turning to `Nc1ccc(-c2nsc(=O)o2)cc1`, the cytotoxicity at 48 h, 100 µM in series [1] worked out at 39.5%. Besides, in series [2], the MIC90 worked out at 16 µg/mL (≈ 82.4 µM) and the MIC99 stood at 16 µg/mL (≈ 82.4 µM).

As to `O=c1oc(-c2ccccc2Cl)ns1`, the cytotoxicity at 48 h, 100 µM in series [1] turned out to be 20.6%. In series [2], this molecule came in with an MIC90 of 8 µg/mL (≈ 37.4 µM) and an MIC99 of 8 µg/mL (≈ 37.4 µM).

Regarding `O=c1oc(-c2cnccn2)ns1`, in series [1], the cytotoxicity at 48 h, 100 µM came out at 31.4%. Moreover, in series [2], the MIC90 is 16 µg/mL (≈ 88.3 µM) and the MIC99 stood at 4 µg/mL (≈ 22.1 µM).

Consider `O=c1nc(-c2ccc3ccccc3c2)ss1`, for which the cytotoxicity at 48 h, 100 µM in series [1] amounted to 47.2%. In series [2], the MIC90 was determined as 32 µg/mL (≈ 130 µM) and the MIC99 was determined as 16 µg/mL (≈ 65.2 µM).

As to `O=c1oc(-c2cc(F)c(Cl)nc2Cl)ns1`, in series [1], the cytotoxicity at 48 h, 100 µM came to 15.1%. Also, in series [2], the MIC90 is 16 µg/mL (≈ 59.9 µM) and the MIC99 is 8 µg/mL (≈ 30 µM).

`O=c1nc(-c2cc(F)c(Cl)nc2Cl)ss1`: the cytotoxicity at 48 h, 100 µM in series [1] is 24.3%. In series [2], this molecule gave an MIC90 of 32 µg/mL (≈ 113 µM) and an MIC99 of 4 µg/mL (≈ 14.1 µM).

Regarding `Cc1ccccc1-c1nsc(=O)o1`, the cytotoxicity at 48 h, 100 µM in series [1] was 18.1%. In series [2], this molecule yielded an MIC90 of 8 µg/mL (≈ 41.4 µM) and an MIC99 of 16 µg/mL (≈ 82.8 µM).

As to `O=c1oc(-c2ccc(Cl)cc2)ns1`, the cytotoxicity at 48 h, 100 µM in series [1] worked out at 39.6%. In series [2], this molecule yielded an MIC90 of 32 µg/mL (≈ 150 µM) and an MIC99 of 4 µg/mL (≈ 18.7 µM).

As for `COc1ccc(OC)c(-c2nsc(=O)o2)c1`, the cytotoxicity at 48 h, 100 µM in series [1] is 25.3%. Moreover, in series [2], the MIC90 turned out to be 16 µg/mL (≈ 66.9 µM) and the MIC99 is 16 µg/mL (≈ 66.9 µM).

Take `Nc1ccc(-c2nc(=O)ss2)cc1`: in series [1], the cytotoxicity at 48 h, 100 µM is 46.3%. In series [2], the MIC90 is 16 µg/mL (≈ 76.1 µM) and the MIC99 came out at 32 µg/mL (≈ 152 µM).

With `O=c1oc(-c2ccc3ccccc3c2)ns1`, in series [1], the cytotoxicity at 48 h, 100 µM was 26.2%. In series [2], the MIC90 worked out at 16 µg/mL (≈ 69.8 µM) and the MIC99 stood at 16 µg/mL (≈ 69.8 µM).

`O=c1nc(-c2ccccc2Cl)ss1`: the cytotoxicity at 48 h, 100 µM in series [1] amounted to 40.1%. Moreover, in series [2], the MIC90 amounted to 8 µg/mL (≈ 34.8 µM) and the MIC99 was found to be 16 µg/mL (≈ 69.7 µM).

For the molecule `COc1cccc(-c2nc(=O)ss2)c1`, in series [1], the cytotoxicity at 48 h, 100 µM was 38.6%. Also, in series [2], the MIC90 is 16 µg/mL (≈ 71 µM) and the MIC99 worked out at 32 µg/mL (≈ 142 µM).

For `O=c1nc(-c2cccnc2Cl)ss1`, in series [1], the cytotoxicity at 48 h, 100 µM is 34.4%. In series [2], this molecule had an MIC90 of 32 µg/mL (≈ 139 µM) and an MIC99 of 16 µg/mL (≈ 69.4 µM).

On to `Cc1ccccc1-c1nc(=O)ss1`, for which the cytotoxicity at 48 h, 100 µM in series [1] came out at 18.6%. In series [2], this molecule registered an MIC90 of 16 µg/mL (≈ 76.4 µM) and an MIC99 of 32 µg/mL (≈ 153 µM).

Turning to `Cc1sc(-c2nsc(=O)o2)cc1[N+](=O)[O-]`, the cytotoxicity at 48 h, 100 µM in series [1] worked out at 53.8%. In addition, in series [2], the MIC90 came out at 2 µg/mL (≈ 8.19 µM) and the MIC99 is 1 µg/mL (≈ 4.09 µM).

`COc1cccc(-c2nsc(=O)o2)c1`: in series [1], the cytotoxicity at 48 h, 100 µM turned out to be 15%. Also, in series [2], the MIC90 is 8 µg/mL (≈ 38.2 µM) and the MIC99 is 16 µg/mL (≈ 76.5 µM).

With `O=c1oc(-c2ccccc2[N+](=O)[O-])ns1`, the cytotoxicity at 48 h, 100 µM in series [1] came to 32.4%. For the same molecule, in series [2], the MIC90 was 8 µg/mL (≈ 35.7 µM) and the MIC99 turned out to be 16 µg/mL (≈ 71.4 µM).

Turning to `O=c1oc(-c2ccc(F)cc2)ns1`, in series [1], the cytotoxicity at 48 h, 100 µM came out at 21.7%. Besides, in series [2], the MIC90 came to 16 µg/mL (≈ 81.1 µM) and the MIC99 amounted to 16 µg/mL (≈ 81.1 µM).

As for `Cc1ccc(-c2nsc(=O)o2)s1`, the cytotoxicity at 48 h, 100 µM in series [1] was found to be 25.1%. In addition, in series [2], the MIC90 was determined as 8 µg/mL (≈ 40.1 µM) and the MIC99 is 16 µg/mL (≈ 80.3 µM).

Turning to `O=c1nc(-c2ccc([N+](=O)[O-])cc2Cl)ss1`, the cytotoxicity at 48 h, 100 µM in series [1] was determined as 28.6%. Besides, in series [2], the MIC90 was determined as 32 µg/mL (≈ 116 µM) and the MIC99 was 16 µg/mL (≈ 58.2 µM).
